Measurements taken from patent publication US12714712B2, “Combination therapy with a mutant IDH inhibitor and a Bcl-2 inhibitor” (Eli Lilly and Company, priority 2020, dated 2026).
Several values for one entry are separate records, joined by “and”; a condition that tells them apart may be missing. Equal entries are not always repeated. One block for each compound: values may come before it.

What was measured:
[1] = biological target: T1, mutant IDH1 (IDH1 R132H) in MOLM14 R132 cell line construct (Homo sapiens, UniProt O75874, R132H); experiment: 2-HG Inhibition Assay (LC-MS of cell culture supernatant); format: cell-based; settings: for 2-HG: 4 days, MOLM14 R132, doxycycline-induced, culture media
T1 construct: FLAG; host or cells: MOLM14 human leukemia cells (lentiviral, doxycycline-induced)
Source text: MOLM14 wild-type human leukemia cells and a MOLM14 R132 construct cell line are generated by lentiviral transfection of MOLM14 cells using IDH1 WT (doxycycline inducible) pSLIK-IDH1-FLAG (Addgene Plasmid #66802) and IDH1 R132H (doxycycline inducible) pSLIK-IDH1-R132H-FLAG (Addgene Plasmid #66803), and is kindly provided by Dr. Jean-Emmanuel Sarry (Centre de Recherches en Cancérologie de Toulouse, UMR1037, Inserm, Université de Toulouse 3 Paul Sabatier, Toulouse, France; bioRxiv 749580; doi.org/10.1101/749580). MOLM14-WT and MOLM14-R132 mutant cells are seeded in 6 well plates (lx 10^6/well) in 5 ml of complete RPMI medium containing 10% FBS (Sigma) and 1× Pen/Strep (Sigma). After induction with 2 μg/ml doxycycline, the cells are incubated in 37 degree for 4 days.
Cells are seeded in 12 wells plates (100,000 cells/well) in 1 mL, in triplicate. Cells are treated with 2 μg/ml doxycycline to induce IDH1 expression, then treated with DMSO, 0.1 or 1 μM Compound A, and incubated at 37 degrees C. for 4 days.
65 μL of media are collected and centrifuged, and 60 μL of the supernatant media are collected and frozen at −80 degrees C.
LCMS 2-HG Metabolite Analysis.
The effects of IDH1 inhibition on the concentrations of total 2-HG and (α-KG) are determined by liquid chromatography-mass spectrometry (LC-MS) analysis of cell culture supernatant. Calibration curves are prepared by spiking 2-HG and α-KG into cell culture media. The method utilizes derivatization with O-benzylhydroxylamine prior to analysis by LC-MS. Ten microliters of each standard or sample is placed into a deep-well 96-well plate and combined with 100 μL of internal standard solution containing 10 μM d5-2-hydroxyglutarate and 10 μM d6-α-KG. 50 μL of 1 M O-benzylhydroxylamine in pyridine buffer (8.6% pyridine, pH 5) and 50 μL of 1 M N-(3-dimethylaminopropyl)-N-ethylcarbodiimide hydrochloride (EDC) in pyridine buffer is added to each sample. The derivatization reaction proceeds at room temperature for one hour. […] Analyte concentrations for the unknowns are back-calculated from the calibration curves.

[2] = system: MOLM14 wild-type and MOLM14 R132 cells; experiment: Cell Viability Assay (Annexin V/DAPI flow cytometry: % viable cells and % apoptosis); format: cell-based, human
Method: MOLM14 wild-type and MOLM14 R132 cells are treated with 2 μg/ml doxycycline to induce expression of IDH1 WT and IDH1-R132H and then incubated at 37 degrees C. for 4 days. Cells are seeded in 4 (12 wells) plates at 10,000 cells/well in 1 mL growth media containing 2 ug/mL doxycycline.
Cells are treated with: DMSO (in triplicate), or with Compound A at 0, 125, 250, 500, 1000 nM (each in triplicate) as described in the following: After the initial induction described above, 0.5 mL media with 1× of doxycycline plus 1× Compound A or DMSO is added and incubated for 3 days. After the 3 days, another 0.5 mL aliquot of fresh media with 1×doxycyline plus 1×compound A or DMSO is added and incubated for 3 further days. Venetoclax (0, 25, 50, 100, 200 nM) is then added as a single agent or in combination with 1× Compound A. Two days later, cells are collected in flow cytometry filtered tubes, and processed for flow cytometry. Cells are washed with Annexin V Binding Buffer (ABB, 2 mL) [1 M Hepes buffer (10 mL), 5 M NaCl (28 mL), 1 M CaCl2 (5 mL), H2O (957 mL)], and then centrifuged at 1500 rpm for 5 min. Cells are stained with ABB (50 μL), with APC Annexin V Antibody (1 μL, Biolegend cat #640941), and kept in the dark for 20 minutes. Cells are washed with ABB (2 mL) and centrifuged at 1500 rpm for 5 min. DAPI (Invitrogen cat #D3571) and counting beads (Invitrogen cat #C36950) are added in Annexin V binding buffer [DAPI (5 μL, 2 μg/mL)+counting beads (5 μL (520,000 beads per 50 μL))+ABB (150 μL)] in a total volume 160 μL/tube, then analyzed with a Gallios flow cytometer (Beckman Coulter). Cells collection is stopped when counting beads reach 250 beads per sample. Kalusa software is used for analysis. The percentage of gated Annexin V-negative/DAPI-negative cells constitutes % viable cells, while the percentage of Annexin V-positive cells constitutes % apoptosis.

AML-PDX = AML-PDX Model; format: in vivo, NSG mice; settings: peripheral blood, following 6 weeks of treatment, individual animals
Method: Male NSG mice (6-9 weeks of age, The Jackson Laboratory) are irradiated with 250 cGy and on the next day, injected intravenously with AML-PDX (1×10^6 cells/100 μL). Peripheral blood is collected via the retro-orbital route and processed to measure hCD45+ cells by flow cytometry to confirm the establishment of leukemia. When leukemia engraftment reaches more than 1%, mice are randomly grouped for treatment with vehicle, Compound A (10 mg/kg, daily oral gavage), venetoclax (50 mg/kg, oral gavage for 2 weeks on and 1 week off (2 cycles)) or the combination of venetoclax (50 mg/kg, oral gavage for 2 weeks on and 1 week off (2 cycles)) and Compound A (10 mg/kg, daily oral gavage). Additional dosing may be employed beyond the 2 cycles stated above based on the assessment of the level of residual disease remaining following 6 weeks of treatment. Peripheral blood is collected once every two weeks via the retro-orbital route and processed to measure leukemia burden (% hCD33+/hCD45+ cells) by flow cytometry, and to measure differentiation (% hCD14+ cells percentage out of total hCD45+ cells)). Sixty-five μL stain/wash buffer (5% heat inactivated (HI)-FBS in DPBS) is added per tube, mixed up and down 3 to 4 times by pipette, and 100 μL of the blood suspension is transferred to 5 mL polypropylene tubes. The stains are added according to the manufacturer's instructions (anti-human CD33-APC (BD Biosciences cat #551378), anti-human CD14-PE-Cy7 (BD Biosciences cat #557742), anti-human CD45-APC-Cy7 (BD Biosciences cat #557833). The samples are incubated for 30 minutes at room temperature, protected from light. After the incubation, 1.5 mL 1× BD Lyse/Fix buffer (37° C., (BD #558049)) is added to each sample and incubated for 12 minutes at room temperature. The tubes are then centrifuged at 1500 RPMI for 5 minutes. BD Lyse/Fix solution is aspirated and the cell pellet washed with stain/wash buffer 2 times. Fixed cells are then resuspended in 200 μL stain/wash buffer then transferred to filtered flow tubes. Samples are analyzed on a Gallios Flow cytometer (Beckman, Texas) using standard flow cytometry principles and technique. Population gating and data analysis of percent population are performed in the Flow Jo software.

mutant IDH1 = settings: from WO 2018/111707 A1; cited from earlier work
[3] = Compound A 10 mg/kg daily oral gavage, 10 mg/kg
[4] = venetoclax 50 mg/kg oral gavage, 2 weeks on and 1 week off (2 cycles)

T1 sequence (O75874 whole entry R132H): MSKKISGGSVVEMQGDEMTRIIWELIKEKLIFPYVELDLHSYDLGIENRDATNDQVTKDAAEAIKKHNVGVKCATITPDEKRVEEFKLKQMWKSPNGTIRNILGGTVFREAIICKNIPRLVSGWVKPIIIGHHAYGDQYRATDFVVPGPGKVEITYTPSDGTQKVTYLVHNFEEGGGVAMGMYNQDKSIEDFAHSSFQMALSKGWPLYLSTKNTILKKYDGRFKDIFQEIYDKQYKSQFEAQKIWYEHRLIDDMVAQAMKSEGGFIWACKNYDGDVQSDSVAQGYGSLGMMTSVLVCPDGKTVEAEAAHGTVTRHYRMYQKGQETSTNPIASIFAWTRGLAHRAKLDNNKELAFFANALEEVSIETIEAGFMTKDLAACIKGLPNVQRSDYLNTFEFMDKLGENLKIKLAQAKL

- 2-HG ([1]; 0.1 μM Compound A): 3.369 µM and 3.044 µM and 3.488 µM
- 2-HG ([1]; 1 μM Compound A): 3.578 µM and 3.199 µM and 3.378 µM
- 2-HG production by mutant IDH1 (in words) ([1]; MOLM14 R132 cell line construct): inhibits 2-HG production
SMILES: C=CC(=O)N1CCN([C@@H](CC2CC2)c2ccc([C@H](C)Nc3ncc4c(n3)N(CC)C(=O)OC4)cc2)CC1 [Compound A, 7-[[(1S)-1-[4-[(1S)-2-cyclopropyl-1-(4-prop-2-enoylpiperazin-1-yl)ethyl]phenyl]ethyl]amino]-1-ethyl-4H-pyrimido[4,5-d][1,3]oxazin-2-one]
- % Annexin V + as a measure of apoptosis ([2]; Compound A 125 nM alone): 5.56% and 4.3% and 5.12%
- % Cell Viability ([2]; Compound A 125 nM alone): 95.14% and 94.27%
- % Annexin V + as a measure of apoptosis ([2]; Compound A 250 nM alone): 6.18% and 4.95% and 4.92%
- % Cell Viability ([2]; Compound A 250 nM alone): 94.27% and 94.41%
- % Annexin V + as a measure of apoptosis ([2]; Compound A 500 nM alone): 5.82% and 5.23% and 5.19%
- % Cell Viability ([2]; Compound A 500 nM alone): 93.92% and 94.15%
- % Annexin V + as a measure of apoptosis ([2]; Compound A 1000 nM alone): 7.2% and 5.51% and 7.52%
- % Cell Viability ([2]; Compound A 1000 nM alone): 93.98% and 91.68%
- viability at 0.125 µM ([2]; Homo sapiens, MOLM-14, Compound A 125 nM alone): 93.7%
- viability at 0.25 µM ([2]; Homo sapiens, MOLM-14, Compound A 250 nM alone): 93.3%
- viability at 0.5 µM ([2]; Homo sapiens, MOLM-14, Compound A 500 nM alone): 93.7%
- viability at 1 µM ([2]; Homo sapiens, MOLM-14, Compound A 1000 nM alone): 92%
- AML cell differentiation (% hCD14+ of hCD45+) (AML-PDX; [3]): 44.1% and 58.3% and 63.6% and 64.1% and 51.7% and 58.9%
- Leukemic burden (% hCD33+hCD45+ of total white cells) (AML-PDX; [3]): 87.8% and 88.5% and 51.5% and 65.6% and 85.1% and 81.9%
- 2-HG production (in words) (mutant IDH1): selectively inhibits 2-HG production
- α-KG levels (in words) (mutant IDH1): without affecting α—KG levels

SMILES: CC1(C)CCC(CN2CCN(c3ccc(C(=O)NS(=O)(=O)c4ccc(NCC5CCOCC5)c([N+](=O)[O-])c4)c(Oc4cnc5[nH]ccc5c4)c3)CC2)=C(c2ccc(Cl)cc2)C1 [Venetoclax, venetoclax, reference compound]
- viability at 0.025 µM ([2]; Homo sapiens, MOLM-14, 48 h, venetoclax 25 nM alone, 2 days): 76.1%
- viability at 0.05 µM ([2]; Homo sapiens, MOLM-14, 48 h, venetoclax 50 nM alone, 2 days): 76.9%
- viability at 0.1 µM ([2]; Homo sapiens, MOLM-14, 48 h, venetoclax 100 nM alone, 2 days): 70.4%
- viability at 0.2 µM ([2]; Homo sapiens, MOLM-14, 48 h, venetoclax 200 nM alone, 2 days): 55.2%
- % Annexin V + as a measure of apoptosis ([2]; venetoclax 25 nM alone): 19.1% and 15.93% and 19.16%
- % Cell Viability ([2]; venetoclax 25 nM alone, 2 days): 81.78% and 77.84%
- % Annexin V + as a measure of apoptosis ([2]; venetoclax 50 nM alone): 18.22% and 16.34% and 17.15%
- % Cell Viability ([2]; venetoclax 50 nM alone, 2 days): 80.63% and 78.78%
- % Annexin V + as a measure of apoptosis ([2]; venetoclax 100 nM alone): 24.62% and 18.98% and 22.98%
- % Cell Viability ([2]; venetoclax 100 nM alone, 2 days): 73.78%
- % Annexin V + as a measure of apoptosis ([2]; venetoclax 200 nM alone): 41.67% and 35.73% and 41.22%
- % Cell Viability ([2]; venetoclax 200 nM alone, 2 days): 59.27% and 56.31%
- AML cell differentiation (% hCD14+ of hCD45+) (AML-PDX; [4]): 37.7% and 26% and 40.7% and 32.6%
- Leukemic burden (% hCD33+hCD45+ of total white cells) (AML-PDX; [4]): 10.1% and 63% and 14.1% and 54.9%
